Experimental data as given in US10920506B2, “Methods for wellbore milling operations” (STEP ENERGY SERVICES LTD., priority 2018, dated 2021).

Tests used:
[1] = IBDU solubility without accelerator, 2 bag STEPvert LT diversion pill in water or brine; assay type: physicochemical; conditions: 45 kg/m3 loading of IBDU in water or brine
Text: Operations: • When milling in an underpressured well (i.e. hydrostatic pressure is greater than bottom hole pressure), or when there are indications of possible or actual lost circulation. • Add two bags of 100 Mesh IBDU such as STEPvert LT™ available from STEP Energy Services Ltd. to fluid in a displacement tank (45 kg/m^3), engage agitation paddle to maximum RPM (if paddle is not spinning fast enough to mix fluid, increase paddle speed) to ensure mixing. Continue mixing or, as noted above, displace while IBDU is added. • To avoid the IBDU settling out prior to arriving downhole, adjust the fluid if necessary to increase the carrying capacity of the fluid such that solid IBDU is able to remain suspended for the period of time it takes to get downhole. This may be achieved by pump rate and/or addition of viscosifiers. Thus, to better suspend solids: • A gelling agent is added: For example liquid gel hydroxyethyl cellulose 5 L/m^3 (2 kg/m^3 if dry gel) is added to the displacement tank with a target hydration time of 3 minutes; and/or • Slowly pour IBDU into the mixing tub while displacing to ensure no product settles out. • Add a degradation accelerator if needed. Consider Table 1 where IBDU solubility is summarized with and without a citric acid accelerator based on 45 kg/m3 loading of IBDU in water or brine: […]

[2] = IBDU dissolution time with citric acid accelerator (Accelerator HT); assay type: physicochemical; conditions: 2 bag pill, 45 kg/m3 IBDU in water or brine
Text: Operations: • When milling in an underpressured well (i.e. hydrostatic pressure is greater than bottom hole pressure), or when there are indications of possible or actual lost circulation. • Add two bags of 100 Mesh IBDU such as STEPvert LT™ available from STEP Energy Services Ltd. to fluid in a displacement tank (45 kg/m^3), engage agitation paddle to maximum RPM (if paddle is not spinning fast enough to mix fluid, increase paddle speed) to ensure mixing. Continue mixing or, as noted above, displace while IBDU is added. • To avoid the IBDU settling out prior to arriving downhole, adjust the fluid if necessary to increase the carrying capacity of the fluid such that solid IBDU is able to remain suspended for the period of time it takes to get downhole. This may be achieved by pump rate and/or addition of viscosifiers. Thus, to better suspend solids: • A gelling agent is added: For example liquid gel hydroxyethyl cellulose 5 L/m^3 (2 kg/m^3 if dry gel) is added to the displacement tank with a target hydration time of 3 minutes; and/or • Slowly pour IBDU into the mixing tub while displacing to ensure no product settles out. • Add a degradation accelerator if needed. Consider Table 1 where IBDU solubility is summarized with and without a citric acid accelerator based on 45 kg/m3 loading of IBDU in water or brine:
• Generally if the formation temperature is less than 90° C., use a degradation accelerator, such as a resin coated citric acid such as Accelerator HT™ available from STEP Energy Services Ltd. The citric acid reduces pH in order to reduce degradation time of the IBDU. The resin coating ensures that the citric acid substantially will not begin to act until it reaches formation temperature. The resin breaks down to expose the acid and the acid then reduces pH and expedites degradation. • The pill of the IBDU, possibly including degradation accelerator, is launched. If a twin pump is employed, pump only through one fluid end and isolate the idle side. This ensures diverter only enters one side of plumbing. This is an operational efficiency, where only one fluid end is exposed to diverter in case it collects in large quantities and holds a valve and seat open. By always keeping one side “clean” (no solids) operational risks are mitigated. • Maintain a minimum rate of at least about 0.2 m^3/min or possibly about 0.4 m^3/min through the single fluid end (higher rate is better to aid in carrying solids). If fluid is comingled with gas such as nitrogen, lower rates may be used. […] This ensures the fluid end has been properly flushed. • Track volume from when pill enters the coil to when it is expected to reach open formation. Record the time that each pill reaches formation/exits coil BHA on treatment report (include surface iron in volume calculation). In case a large pressure event occurs when the pill exits the downhole pump, only one pill is to be inside coil at any given time.

[3] = 50° C., Accelerator HT Loading 5 kg
[4] = 60° C., Accelerator HT Loading 4 kg
[5] = 70° C., Accelerator HT Loading 2 kg
[6] = 80° C., Accelerator HT Loading 1 kg
[7] = 90° C., Accelerator HT Loading 0 kg

CC(C)C(NC(N)=O)NC(N)=O [STEPvert LT, isobutylidene diurea]
No Accelerator Solubility, % 24 Hours ([1]; 50° C.): 14%
No Accelerator Solubility, % 48 Hours ([1]; 50° C.): 20%
No Accelerator Solubility, % 96 Hours ([1]; 50° C.): 32%
No Accelerator Solubility, % 24 Hours ([1]; 60° C.): 18%
No Accelerator Solubility, % 48 Hours ([1]; 60° C.): 24%
No Accelerator Solubility, % 96 Hours ([1]; 60° C.): 35%
No Accelerator Solubility, % 24 Hours ([1]; 70° C.): 32%
No Accelerator Solubility, % 48 Hours ([1]; 70° C.): 35%
No Accelerator Solubility, % 96 Hours ([1]; 70° C.): 51%
No Accelerator Solubility, % 24 Hours ([1]; 80° C.): 51%
No Accelerator Solubility, % 48 Hours ([1]; 80° C.): 96%
No Accelerator Solubility, % 96 Hours ([1]; 80° C.): 98%
No Accelerator Solubility, % 24 Hours ([1]; 90° C.): 89%
No Accelerator Solubility, % 48 Hours ([1]; 90° C.): 96%
No Accelerator Solubility, % 96 Hours ([1]; 90° C.): 98%
50% Dissolution Time [2, 3]: 1.5 days
100% Dissolution Time [2, 3]: 5 days
50% Dissolution Time [2, 4]: 1 days
100% Dissolution Time [2, 4]: 3 days
50% Dissolution Time [2, 5]: 1 days
100% Dissolution Time [2, 5]: 2 days
50% Dissolution Time [2, 6]: 1 days
100% Dissolution Time [2, 6]: 2 days
50% Dissolution Time [2, 7]: 0.33 days
100% Dissolution Time [2, 7]: 1 days
